Source: PubChem BioAssay AID2060609 (Molecular Pharmacology Branch, DTP, NCI, 2025)

System: 855422-203-R-J1-PDC complex spheroids, viability
Assay: Anticancer human tumor 855422-203-R-J1-PDC patient-derived bladder carcinoma cell line growth inhibition [CLK]
Conditions: for IC50: curve of first compound; for viability, T/C: stronger effect = lower value
Summary of the method: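 Patient-derived tumor cells grown as complex spheroids with HUVEC endothelial cells and mesenchymal stem cells, treated with drug combinations. Concentrations descend in half-log steps from near clinical Cmax, or from 10 microM if Cmax unknown.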
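Also: spheroids exposed to drugs for seven days before readout.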
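For viability, T/C in this document: 100% = DMSO vehicle control wells.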

**Q.** How did the IC50 (second compound 0.0316 µM) turn out when `NC(=O)C(=Cn1cnc(-c2cc(C(F)(F)F)cc(C(F)(F)F)c2)n1)c1cncnc1` + CNC(=O)c1ccc(Nc2nc(OC3CCCC3)c3c(-c4ccc5nc(C)oc5c4)c[nH]c3n2)c(OC)c1 was run?
**A.** The IC50 was 69.3 nM.

**Q.** And the IC50 (second compound 0.1 µM)?
**A.** Its IC50 is under 9.49 nM.

**Q.** And the IC50 (second compound 0.316 µM)?
**A.** The IC50 was under 9.49 nM.

**Q.** And the IC50 (second compound 1 µM)?
**A.** The IC50 was under 9.49 nM.

**Q.** What about the IC50 (second compound 3.16 µM) of the same compound?
**A.** Its IC50 is under 9.49 nM.

**Q.** And the IC50 (second compound 10 µM)?
**A.** The IC50 was under 9.49 nM.

**Q.** What about the viability, T/C (second compound 0.0316 µM, first compound 0.00949 µM) of the same compound?
**A.** The viability, T/C was 123%.

**Q.** What about the viability, T/C (second compound 0.0316 µM, first compound 0.03 µM) of the same compound?
**A.** Its viability, T/C is 150%.

**Q.** What about the viability, T/C (second compound 0.0316 µM, first compound 0.0949 µM) of the same compound?
**A.** The viability, T/C was 17.6%.

**Q.** And the viability, T/C (second compound 0.0316 µM, first compound 0.3 µM)?
**A.** The viability, T/C was 10.1%.

**Q.** And the viability, T/C (second compound 0.0316 µM, first compound 0.949 µM)?
**A.** The viability, T/C was 9.34%.

**Q.** And the viability, T/C (second compound 0.0316 µM, first compound 3 µM)?
**A.** The viability, T/C was 3.87%.

**Q.** What about the viability, T/C (second compound 0.1 µM, first compound 0.00949 µM) of the same compound?
**A.** The viability, T/C was 44.8%.

**Q.** And the viability, T/C (second compound 0.1 µM, first compound 0.03 µM)?
**A.** Its viability, T/C is 50.1%.

**Q.** What about the viability, T/C (second compound 0.1 µM, first compound 0.0949 µM) of the same compound?
**A.** The viability, T/C was 12.1%.

**Q.** What about the viability, T/C (second compound 0.1 µM, first compound 0.3 µM) of the same compound?
**A.** The viability, T/C was 6.75%.

**Q.** What about the viability, T/C (second compound 0.1 µM, first compound 0.949 µM) of the same compound?
**A.** Its viability, T/C is 5.9%.

**Q.** What about the viability, T/C (second compound 0.1 µM, first compound 3 µM) of the same compound?
**A.** The viability, T/C was 2.36%.

**Q.** What about the viability, T/C (second compound 0.316 µM, first compound 0.00949 µM) of the same compound?
**A.** The viability, T/C was 20.1%.

**Q.** What about the viability, T/C (second compound 0.316 µM, first compound 0.03 µM) of the same compound?
**A.** Its viability, T/C is 13.7%.

**Q.** What about the viability, T/C (second compound 0.316 µM, first compound 0.0949 µM) of the same compound?
**A.** The viability, T/C was 12.3%.

**Q.** And the viability, T/C (second compound 0.316 µM, first compound 0.3 µM)?
**A.** Its viability, T/C is 6.63%.

**Q.** What about the viability, T/C (second compound 0.316 µM, first compound 0.949 µM) of the same compound?
**A.** Its viability, T/C is 3.98%.

**Q.** What about the viability, T/C (second compound 0.316 µM, first compound 3 µM) of the same compound?
**A.** Its viability, T/C is 3%.

**Q.** What about the viability, T/C (second compound 1 µM, first compound 0.00949 µM) of the same compound?
**A.** The viability, T/C was 18.6%.

**Q.** And the viability, T/C (second compound 1 µM, first compound 0.03 µM)?
**A.** Its viability, T/C is 10.4%.

**Q.** What about the viability, T/C (second compound 1 µM, first compound 0.0949 µM) of the same compound?
**A.** Its viability, T/C is 9.1%.

**Q.** And the viability, T/C (second compound 1 µM, first compound 0.3 µM)?
**A.** Its viability, T/C is 3.59%.

**Q.** What about the viability, T/C (second compound 1 µM, first compound 0.949 µM) of the same compound?
**A.** The viability, T/C was 1.47%.

**Q.** And the viability, T/C (second compound 1 µM, first compound 3 µM)?
**A.** The viability, T/C was 0.79%.

**Q.** What about the viability, T/C (second compound 3.16 µM, first compound 0.00949 µM) of the same compound?
**A.** The viability, T/C was 14.3%.

**Q.** And the viability, T/C (second compound 3.16 µM, first compound 0.03 µM)?
**A.** The viability, T/C was 14%.

**Q.** What about the viability, T/C (second compound 3.16 µM, first compound 0.0949 µM) of the same compound?
**A.** Its viability, T/C is 6.09%.

**Q.** And the viability, T/C (second compound 3.16 µM, first compound 0.3 µM)?
**A.** The viability, T/C was 2.12%.

**Q.** What about the viability, T/C (second compound 3.16 µM, first compound 0.949 µM) of the same compound?
**A.** The viability, T/C was 1.2%.

**Q.** And the viability, T/C (second compound 3.16 µM, first compound 3 µM)?
**A.** Its viability, T/C is 1.63%.

**Q.** What about the viability, T/C (second compound 10 µM, first compound 0.00949 µM) of the same compound?
**A.** The viability, T/C was 14.7%.

**Q.** What about the viability, T/C (second compound 10 µM, first compound 0.03 µM) of the same compound?
**A.** The viability, T/C was 13.1%.

**Q.** And the viability, T/C (second compound 10 µM, first compound 0.0949 µM)?
**A.** The viability, T/C was 7.07%.

**Q.** And the viability, T/C (second compound 10 µM, first compound 0.3 µM)?
**A.** The viability, T/C was 1.75%.

**Q.** And the viability, T/C (second compound 10 µM, first compound 0.949 µM)?
**A.** Its viability, T/C is 1.33%.

**Q.** What about the viability, T/C (second compound 10 µM, first compound 3 µM) of the same compound?
**A.** Its viability, T/C is 0.47%.

**Q.** With `Nc1ccccc1NC(=O)c1ccc(CNC(=O)OCc2cccnc2)cc1` + CNC(=O)c1ccc(Nc2nc(OC3CCCC3)c3c(-c4ccc5nc(C)oc5c4)c[nH]c3n2)c(OC)c1 as the compound, how does the IC50 (second compound 0.0316 µM) read?
**A.** Its IC50 is 1120 nM.

**Q.** What about the IC50 (second compound 0.1 µM) of the same compound?
**A.** The IC50 was under 31.6 nM.

**Q.** What about the IC50 (second compound 0.316 µM) of the same compound?
**A.** Its IC50 is under 31.6 nM.

**Q.** And the IC50 (second compound 1 µM)?
**A.** The IC50 was under 31.6 nM.

**Q.** And the IC50 (second compound 3.16 µM)?
**A.** The IC50 was under 31.6 nM.

**Q.** What about the IC50 (second compound 10 µM) of the same compound?
**A.** Its IC50 is under 31.6 nM.

**Q.** What about the viability, T/C (second compound 0.0316 µM, first compound 0.0316 µM) of the same compound?
**A.** The viability, T/C was 77.8%.

**Q.** What about the viability, T/C (second compound 0.0316 µM, first compound 0.1 µM) of the same compound?
**A.** Its viability, T/C is 81.3%.

**Q.** And the viability, T/C (second compound 0.0316 µM, first compound 0.316 µM)?
**A.** The viability, T/C was 79.9%.

**Q.** And the viability, T/C (second compound 0.0316 µM, first compound 1 µM)?
**A.** Its viability, T/C is 49.4%.

**Q.** And the viability, T/C (second compound 0.0316 µM, first compound 3.16 µM)?
**A.** Its viability, T/C is 22.4%.

**Q.** What about the viability, T/C (second compound 0.0316 µM, first compound 10 µM) of the same compound?
**A.** Its viability, T/C is 1.4%.

**Q.** What about the viability, T/C (second compound 0.1 µM, first compound 0.0316 µM) of the same compound?
**A.** The viability, T/C was 46.5%.

**Q.** And the viability, T/C (second compound 0.1 µM, first compound 0.1 µM)?
**A.** Its viability, T/C is 43.9%.

**Q.** What about the viability, T/C (second compound 0.1 µM, first compound 0.316 µM) of the same compound?
**A.** Its viability, T/C is 44.9%.

**Q.** And the viability, T/C (second compound 0.1 µM, first compound 1 µM)?
**A.** Its viability, T/C is 27.7%.

**Q.** And the viability, T/C (second compound 0.1 µM, first compound 3.16 µM)?
**A.** The viability, T/C was 21.1%.

**Q.** And the viability, T/C (second compound 0.1 µM, first compound 10 µM)?
**A.** The viability, T/C was 1.14%.

**Q.** What about the viability, T/C (second compound 0.316 µM, first compound 0.0316 µM) of the same compound?
**A.** The viability, T/C was 20.8%.

**Q.** What about the viability, T/C (second compound 0.316 µM, first compound 0.1 µM) of the same compound?
**A.** Its viability, T/C is 16.2%.

**Q.** What about the viability, T/C (second compound 0.316 µM, first compound 0.316 µM) of the same compound?
**A.** The viability, T/C was 16.9%.

**Q.** And the viability, T/C (second compound 0.316 µM, first compound 1 µM)?
**A.** Its viability, T/C is 18.2%.

**Q.** What about the viability, T/C (second compound 0.316 µM, first compound 3.16 µM) of the same compound?
**A.** Its viability, T/C is 15.3%.

**Q.** And the viability, T/C (second compound 0.316 µM, first compound 10 µM)?
**A.** Its viability, T/C is 0.51%.

**Q.** What about the viability, T/C (second compound 1 µM, first compound 0.0316 µM) of the same compound?
**A.** Its viability, T/C is 18.5%.

**Q.** And the viability, T/C (second compound 1 µM, first compound 0.1 µM)?
**A.** Its viability, T/C is 17.9%.

**Q.** And the viability, T/C (second compound 1 µM, first compound 0.316 µM)?
**A.** Its viability, T/C is 14.9%.

**Q.** What about the viability, T/C (second compound 1 µM, first compound 1 µM) of the same compound?
**A.** The viability, T/C was 13.2%.

**Q.** What about the viability, T/C (second compound 1 µM, first compound 3.16 µM) of the same compound?
**A.** The viability, T/C was 10.4%.

**Q.** And the viability, T/C (second compound 1 µM, first compound 10 µM)?
**A.** Its viability, T/C is 0.17%.

**Q.** And the viability, T/C (second compound 3.16 µM, first compound 0.0316 µM)?
**A.** Its viability, T/C is 17.5%.

**Q.** And the viability, T/C (second compound 3.16 µM, first compound 0.1 µM)?
**A.** Its viability, T/C is 18.6%.

**Q.** What about the viability, T/C (second compound 3.16 µM, first compound 0.316 µM) of the same compound?
**A.** The viability, T/C was 12%.

**Q.** And the viability, T/C (second compound 3.16 µM, first compound 1 µM)?
**A.** Its viability, T/C is 15.3%.

**Q.** And the viability, T/C (second compound 3.16 µM, first compound 3.16 µM)?
**A.** The viability, T/C was 7.63%.

**Q.** What about the viability, T/C (second compound 3.16 µM, first compound 10 µM) of the same compound?
**A.** The viability, T/C was 0.29%.

**Q.** What about the viability, T/C (second compound 10 µM, first compound 0.0316 µM) of the same compound?
**A.** Its viability, T/C is 19.9%.

**Q.** What about the viability, T/C (second compound 10 µM, first compound 0.1 µM) of the same compound?
**A.** Its viability, T/C is 13.6%.

**Q.** And the viability, T/C (second compound 10 µM, first compound 0.316 µM)?
**A.** The viability, T/C was 16.6%.

**Q.** What about the viability, T/C (second compound 10 µM, first compound 1 µM) of the same compound?
**A.** Its viability, T/C is 12.1%.

**Q.** And the viability, T/C (second compound 10 µM, first compound 3.16 µM)?
**A.** Its viability, T/C is 8.45%.

**Q.** And the viability, T/C (second compound 10 µM, first compound 10 µM)?
**A.** The viability, T/C was 0.69%.
